Assay results reported in PubChem BioAssay (NCI).
Several values for one entry are separate records, joined by “and”; a condition that tells them apart may be missing. Equal entries are not always repeated.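 All cell lines were grown in 96-well plates and treated with compound for 48 hours. Here, GI50 denotes the concentration required for 50% inhibition of growth. TGI denotes the concentration required for complete inhibition of growth.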

Columns and labels:
Assay in all cases: NCI tumour cell line growth inhibition, 48 h
EKVX NSCLC = tested on: EKVX NSCLC
T-47D breast = tested on: T-47D breast
SF-295 CNS = tested on: SF-295 CNS
IGROV1 ovarian = tested on: IGROV1 ovarian
A498 renal = tested on: A498 renal
U251 CNS = tested on: U251 CNS
HS 578T breast = tested on: HS 578T breast
OVCAR-3 ovarian = tested on: OVCAR-3 ovarian
SF-268 CNS = tested on: SF-268 CNS
HCC-2998 colon = tested on: HCC-2998 colon
SW-620 colon = tested on: SW-620 colon
MDA-MB-435 = tested on: MDA-MB-435
SF-539 CNS = tested on: SF-539 CNS
HCT-15 colon = tested on: HCT-15 colon
SK-OV-3 ovarian = tested on: SK-OV-3 ovarian
SK-MEL-2 melanoma = tested on: SK-MEL-2 melanoma
SNB-75 CNS = tested on: SNB-75 CNS
SNB-19 CNS = tested on: SNB-19 CNS
NCI/ADR-RES ovarian = tested on: NCI/ADR-RES ovarian
CAKI-1 renal = tested on: CAKI-1 renal
MDA-MB-468 breast = tested on: MDA-MB-468 breast
MCF7 breast = tested on: MCF7 breast
A549 NSCLC = tested on: A549 NSCLC
UACC-257 melanoma = tested on: UACC-257 melanoma
HCT-116 colon = tested on: HCT-116 colon
NCI-H226 lung = tested on: NCI-H226 lung
OVCAR-5 ovarian = tested on: OVCAR-5 ovarian
MALME-3M melanoma = tested on: MALME-3M melanoma
HOP-62 NSCLC = tested on: HOP-62 NSCLC
MDA-MB-231 breast = tested on: MDA-MB-231 breast
NCI-H522 lung = tested on: NCI-H522 lung
TK-10 renal = tested on: TK-10 renal
UO-31 renal = tested on: UO-31 renal
BT-549 breast = tested on: BT-549 breast
NCI-H23 lung = tested on: NCI-H23 lung
786-0 renal = tested on: 786-0 renal
LOX IMVI melanoma = tested on: LOX IMVI melanoma
PC-3 prostate = tested on: PC-3 prostate
K-562 leukemia = tested on: K-562 leukemia
SK-MEL-5 melanoma = tested on: SK-MEL-5 melanoma
KM12 colon = tested on: KM12 colon
DU-145 prostate = tested on: DU-145 prostate

## O=C(O)CCN1C(=O)/C(=C/C=C/c2ccc([N+](=O)[O-])o2)SC1=S
EKVX NSCLC
  GI50: 1.41 µM
T-47D breast
  GI50: 1.41 µM
  TGI: 4.17 µM
SF-295 CNS
  GI50: 1.68 µM
  TGI: 3.24 µM
IGROV1 ovarian
  GI50: 1.58 µM
A498 renal
  GI50: 20 µM
  TGI: 34.3 µM
U251 CNS
  GI50: 0.849 µM
HS 578T breast
  GI50: 1.65 µM
  TGI: 6.71 µM
OVCAR-3 ovarian
  GI50: 1.17 µM
  TGI: 2.57 µM
SF-268 CNS
  GI50: 1.68 µM
  TGI: 3.95 µM
HCC-2998 colon
  GI50: 1.65 µM
  TGI: 3.06 µM
SW-620 colon
  GI50: 1.26 µM
  TGI: 2.81 µM
MDA-MB-435
  GI50: 1.53 µM
  TGI: 3.17 µM
SF-539 CNS
  GI50: 1.09 µM
  TGI: 2.3 µM
HCT-15 colon
  GI50: 0.43 µM
SK-OV-3 ovarian
  GI50: 3.98 µM
SK-MEL-2 melanoma
  GI50: 1.16 µM
SNB-75 CNS
  GI50: 1.57 µM
  TGI: 10.7 µM
SNB-19 CNS
  GI50: 2.09 µM
NCI/ADR-RES ovarian
  GI50: 2.01 µM
  TGI: 10.1 µM
CAKI-1 renal
  GI50: 1.77 µM
  TGI: 3.17 µM
MDA-MB-468 breast
  GI50: 1.13 µM
  TGI: 2.49 µM
MCF7 breast
  GI50: 0.401 µM
A549 NSCLC
  TGI: 13.5 µM
UACC-257 melanoma
  TGI: 3.55 µM
HCT-116 colon
  GI50: 0.386 µM
  TGI: 1.66 µM
NCI-H226 lung
  GI50: 1.4 µM
OVCAR-5 ovarian
  GI50: 1.8 µM
  TGI: 3.34 µM
MALME-3M melanoma
  GI50: 0.748 µM
  TGI: 2.12 µM
HOP-62 NSCLC
  GI50: 1.86 µM
  TGI: 3.92 µM
MDA-MB-231 breast
  GI50: 1.27 µM
  TGI: 2.58 µM
NCI-H522 lung
  GI50: 0.379 µM
  TGI: 1.46 µM
TK-10 renal
  GI50: 1.81 µM
  TGI: 3.35 µM
UO-31 renal
  GI50: 1.26 µM
  TGI: 2.53 µM
BT-549 breast
  GI50: 1.13 µM
  TGI: 2.38 µM
NCI-H23 lung
  TGI: 3.08 µM
786-0 renal
  GI50: 1.63 µM
LOX IMVI melanoma
  GI50: 0.508 µM
PC-3 prostate
  GI50: 1.93 µM
  TGI: 6.09 µM
K-562 leukemia
  GI50: 0.378 µM
  TGI: 6.07 µM
SK-MEL-5 melanoma
  GI50: 1.38 µM
  TGI: 2.68 µM
KM12 colon
  TGI: 2.71 µM
DU-145 prostate
  GI50: 3.33 µM
  TGI: 12.2 µM

## CC(=O)N[C@H]1C=C[C@@H]2/C=C(C)/C=C/[C@@H](C)[C@H]([C@H](C)[C@H](O)[C@@H](C)NC(C)=O)OC(=O)/C=C/C=C(C)\C=C\[C@]2(C)C1
MDA-MB-468 breast
  GI50: 0.00184 µM and 0.0045 µM

## CCOC(=O)Nc1nc2ccc(Cn3cccc3)cc2[nH]1
MDA-MB-468 breast
  GI50: 2.44 µM
  TGI: > 100 µM

## CC(=O)c1c(C)[nH]c(-c2nc3ccc(N4CCN(C)CC4)cc3[nH]2)c1-c1ccc(OCC2CCOCC2)cc1
MDA-MB-468 breast
  GI50: 0.302 µM
  TGI: 7.88 µM

## CCN1CCN(C(=O)[C@]23CC[C@@H](C)[C@H](C)[C@@H]2C2=CC[C@@H]4[C@@]5(C)C/C(=C/c6ccncc6)C(=O)C(C)(C)[C@@H]5CC[C@@]4(C)[C@]2(C)CC3)CC1
MDA-MB-468 breast
  GI50: 1.63 µM
  TGI: 3.38 µM

## O=C(O[C@H]1CN[C@H](C#Cc2cc3ncnc(Nc4ccc5c(ccn5Cc5cc(F)ccc5F)c4)c3s2)C1)N1CCOCC1
MDA-MB-468 breast
  GI50: 0.141 µM
  TGI: 1.59 µM

## Cc1cc(C)c([O-])c(CN(C)CCN(C)Cc2cc(C)cc(C)c2[O-])c1.O=C([O-])c1cccc(C(=O)[O-])n1.[Ti+4]
MDA-MB-468 breast
  GI50: 1.33 µM
  TGI: 3.65 µM

## CC(C)=CCCC(C)c1ccc(C)c2c1OCN(CC1CCNCC1)C2 (stereo not drawn)
MDA-MB-468 breast
  GI50: 5.01 µM
  TGI: 18.5 µM

## COc1cc(Nc2nccc(Nc3ccc4c(C)[nH]nc4c3)n2)cc(OC)c1OC
MDA-MB-468 breast
  GI50: 2.12 µM
  TGI: 7.86 µM

## COc1cc(C(=O)/C(C)=C/c2c[nH]c3ccccc23)cc(OC)c1OC
MDA-MB-468 breast
  GI50: 0.00334 µM

## NOCC(=O)O
MDA-MB-468 breast
  GI50: > 100 µM
  TGI: > 100 µM

## O=c1c(Oc2ccc(F)cc2F)cc2cnc(NC3CCOCC3)nc2n1C1CCS(=O)(=O)CC1
MDA-MB-468 breast
  GI50: > 25 µM
  TGI: > 25 µM

## CN[C@@H](C)C(=O)N[C@H](C(=O)N1CCC[C@H]1C(=O)N[C@H]1c2ccccc2C[C@H]1OCC#CC#CCO[C@@H]1Cc2ccccc2[C@@H]1NC(=O)[C@@H]1CCCN1C(=O)[C@@H](NC(=O)[C@H](C)NC)C1CCCCC1)C1CCCCC1
MDA-MB-468 breast
  GI50: < 0.01 µM
  TGI: 2.18 µM

## O=[N+]([O-])c1cc(Cl)c(Cl)c([N+](=O)[O-])c1Cl
MDA-MB-468 breast
  GI50: 1.05 µM
  TGI: 2.64 µM

## COc1ccc(CN(C)c2ccc(CO)c(Cl)c2)cc1
MDA-MB-468 breast
  GI50: 0.0551 µM
  TGI: 0.197 µM

## CC1=C2[C@@H](CC1)[C@]1(C)O[C@@](C3CCCCC3)(C[C@H]1OC(=O)CO)[C@H]2OC(=O)/C=C/c1ccccc1
MDA-MB-468 breast
  GI50: 9.64 µM
  TGI: 24.4 µM

## O=c1ccn(C2OC(CO)C(O)C2F)c(=O)[nH]1 (stereo not drawn)
MDA-MB-468 breast
  GI50: > 1000 µM
  TGI: > 1000 µM

## CC[C@H](NC(=O)[C@H](C)NC)C(=O)N1C[C@@H](O)C[C@H]1Cc1c(-c2[nH]c3cc(F)ccc3c2C[C@@H]2C[C@H](O)CN2C(=O)[C@H](CC)NC(=O)[C@H](C)NC)[nH]c2cc(F)ccc12
MDA-MB-468 breast
  GI50: 0.2 µM
  TGI: 28 µM

## COc1cc(OC)c(/C=C/S(=O)(=O)Cc2cnc(OC)c(N)c2)c(OC)c1
MDA-MB-468 breast
  GI50: < 0.0212 µM
  TGI: > 100 µM

## Cc1nc2sc(C(=O)Nc3cccc(Cl)c3C)c(N)c2cc1C(=O)/C=C/c1ccccc1
MDA-MB-468 breast
  GI50: 0.212 µM
  TGI: 0.811 µM

## COc1ccc(/C=N\NC(=O)CN2CCN(c3cc4c(cc3F)c(=O)c(C(=O)N/N=C/c3ccc(OC)c(OC)c3)cn4C3CC3)CC2)cc1OC
MDA-MB-468 breast
  GI50: 3.07 µM
  TGI: 8.35 µM

## COc1cc(OC)cc(C2CC(=O)Nc3c2c(C)nn3-c2nc3ccccc3[nH]2)c1 (stereo not drawn)
MDA-MB-468 breast
  GI50: 3.93 µM
  TGI: > 100 µM

## O=c1c2cc(Cl)ccc2oc2ccc(OCCCCCN3CCCCC3)cc12
MDA-MB-468 breast
  GI50: 5.19 µM
  TGI: 12.7 µM

## O=C1Nc2ccc(C(=O)c3ccco3)cc2/C1=C/c1cc(Cl)c(O)c(Cl)c1
MDA-MB-468 breast
  GI50: 1.86 µM
  TGI: 16 µM

## Cc1ccccc1NC(=O)N/C(N)=N/c1nc(-c2cccc([N+](=O)[O-])c2)cs1
MDA-MB-468 breast
  GI50: 1.64 µM
  TGI: 7.24 µM

## C#C[C@]1(O)CC[C@H]2[C@@H]3CC=C4c5sc(Nc6cccc(Cl)n6)nc5CC[C@]4(C)[C@H]3CC[C@@]21C
MDA-MB-468 breast
  GI50: 1.49 µM
  TGI: 4.05 µM

## C=C1C(=O)O[C@H]2[C@H]1CC/C(CNC(=O)c1cc3cc(OC)ccc3[nH]1)=C\CC[C@@]1(C)O[C@@H]21
MDA-MB-468 breast
  GI50: 0.714 µM
  TGI: 2.61 µM

## CO[C@@H]1/C=C\C=C(/C)C(=O)NC2=CC(=O)C(NCCN(C)C)=C(C[C@@H](C)C[C@@H](OC)[C@@H](O)[C@H](C)/C=C(\C)[C@H]1OC(N)=O)C2=O
MDA-MB-468 breast
  GI50: 0.0187 µM
  TGI: 0.0656 µM
